Earlier results in US20260174914A1, “METHOD OF TREATING PSMA-EXPRESSING CANCERS” (ENDOCYTE, INC., priority 2020, published 2026).

Substance: XOMA 089: fully human monoclonal antibody that specifically binds and neutralizes TGF-beta 1 and 2 ligands
- cross-reactivity with cynomolgus monkey TGF-β (cynomolgus monkey TGF-β): cross-reacts
- cross-reactivity with rodent TGF-β (rodent TGF-β): cross-reacts
